Reference: patent US4755511A, “Tricyclic pyridazinone compounds” (Smith Kline & French Laboratories Limited, priority 1984, dated 1988)

Legend:
[1] = Curran et al, J. Med. Chem. 1974, p 273; cited from earlier work
[2] = tested on: ventricular strips; assay: Cardiac stimulant activity in vitro: force of contraction of electrically stimulated guinea pig right ventricular strips; conditions: Cavia porcellus; 50% increase in force of contraction; 0.5 Hz stimulation, Krebs Henseleit solution, 37° C.
Procedure: The compounds of formula (I) and their pharmaceutically acceptable salts are tested for cardiac stimulant activity following a procedure based on that of S. […]. Pharm & Exp. Therapeutics, 200, 352-362 (1977)). Guinea pigs (500-700 g) of either sex are sacrificed and the hearts are quickly removed and transferred to a dissecting dish containing oxygenated bathing fluid. While in the bathing medium, the right ventricle is cut into two strips. The strips are each suspended in a 75 ml bath containing Krebs Henseleit solution at 37° C. and the bath is bubbled with 95% oxygen and 5% carbon dioxide. The ventricular strips are electrically stimulated at a frequency of 0.5 Hz, at double the threshold voltage. A resting tension of 1.0 g is applied to the strips and the tension is kept constant by readjustment during an equilibration period of 60 minutes. The bathing fluid is frequently changed during this period. When a steady base line is obtained, a compound under test is added to the bathing fluid and a cumulative concentration response curve is plotted. […] In the above test method the compounds of the Examples gave the following data : […]

[3] = tested on: left ventricular dp/dt max; assay: Cardiac stimulant activity in vivo in anaesthetised cats (left ventricular dp/dt max, i.v.); set-up: species or system cat; key to Relative Duration: ***: Long; **: medium; *: short; conditions: for ED50: Felis catus, read-out: ED50 (dose to increase left ventricular dp/dt max by 50%), intravenous, anaesthetised cats pretreated with ganglion blocker (mecamylamine or pempidine) and propranolol; for Relative Duration: estimated in the anaesthetised cats following i.v. administration

EC50 [2] | Structure (SMILES) | hypotensive activity [1] | ED50 [3] | Relative Duration [3]
 | COc1ccc2c(c1)CCc1cc(=O)[nH]nc1-2 [dehydro analogue, 5,6-Dihydro-8-methoxybenzo[h]cinnolin-3[2H]-one] | not showing any hypotensive activity |  | 
22 µM | CN=C(NC#N)Nc1ccc2c(c1)CCC1CC(=O)NN=C21 (stereo not drawn) [Example 15, 8-(N^2 -Methyl-N^3-cyanoguanidino)-4,4a,5,6-tetrahydrobenzo-[h]cinnolin-3[2H]-one] |  | 1.2 µmol/kg | **
23 µM | COc1ccc2c(c1)CCC1(C)CC(=O)NN=C21 (stereo not drawn) [Example 10, 8-Methoxy-4a-methyl-4,4a,5,6-tetrahydrobenzo[h]cinnolin-3[2H]-one] |  | 0.2 µmol/kg | *
 | CC12CCc3cc(C(N)=O)ccc3C1=NNC(=O)C2 (stereo not drawn) [Example 19, 8-Carboxamido-4a-methyl-4,4a,5,6-tetrahydrobenzo[h]cinnolin-3[2H]-one] |  | 1.6 µmol/kg | **
14 µM | Nc1ccc2c(c1)CC1CC(=O)NN=C21 (stereo not drawn) [Example 1, 7-Amino-4,4a-dihydro-[5H]-indeno[1,2-c]pyridazin-3[2H]-one] |  | 1.8 µmol/kg | **
 | COc1ccc2c(c1)CCC1CC(=O)NN=C21 (stereo not drawn) [8-Methoxy-4,4a,5,6-tetrahydrobenzo[h]cinnolin-3[2H]-one] | not showing any hypotensive activity |  | 
21 µM | COc1ccc2c(c1)CC1(C)CC(=O)NN=C21 (stereo not drawn) [Example 7, 4,4a-Dihydro-7-methoxy-4a-methyl-[5H]-indeno[1,2-c]-pyridazin-3[2H]-one] |  | 1.4 µmol/kg | **
27 µM | CC12CC(=O)NN=C1c1ccc(C(N)=O)cc1C2 (stereo not drawn) [Example 3, 7-Carboxamido-4,4a-dihydro-4a-methyl-[5H]-indeno[1,2-C]-pyridazin-3[2H]-one] |  | 0.4 µmol/kg | *
 | NC(=O)c1ccc2c(c1)CCC1CC(=O)NN=C21 (stereo not drawn) [Example 17, 8-Carboxamido-4,4a,5,6-tetrahydrobenzo[h]cinnolin-3[2H]-one] |  | 1.2 µmol/kg | **
